The values below come from patent US20220145264A1, “CULTURE MEDIUM FOR MAMMALIAN EXPANDED POTENTIAL STEM CELLS, COMPOSITION, AND METHODS THEREOF” (THE UNIVERSITY OF HONG KONG, priority 2019, published 2022).

“Also recorded” adds a separate entry of the source.

One experiment relates to H1-EPSCs. Briefly: Requirement of individual culture components for hEPSCs (RT-qPCR, AP+ colony formation). Type of experiment: cell-based, human. The protocol: (§1) Porcine and human EPSC cultures were routinely maintained on STO feeders. STO feeder plates were prepared 3-4 days before passaging by thawing and plating the mitomycin C inactivated STO cells on 0.1% gelatinised plates at the density of ˜1.1×10^4 cells/cm^2. Porcine/human EPSC cells were maintained on STO feeder layers and enzymatically passaged every 3-5 days by a brief PBS wash followed by treatment for 3-5 minutes with 0.25% trypsin/EDTA (Gibco, Cat. No. 25500-054). The cells were dissociated and centrifuged (300 g×5 minutes) in M10 medium. M10: knockout DMEM (Gibco, Cat. No. 10829-018), 10% FBS (Gibco, Cat. No. 10270), 1× Glutamine Penicillin-Streptomycin (Thermo Fisher Scientific, Cat. No. 11140050) and 1×NEAA (Thermo Fisher Scientific, Cat. No. 10378-016). After removing supernatant, the porcine/human EPSCs were re-suspended and seeded in pEPSCM/hEPSCM supplemented with 5 μM ROCK inhibitor Y-27632 (Tocris, Cat. No. 1254). 5% FBS (Gibco, Cat. No. 10270) and 10% KnockOut Serum Replacement (KSR) (Gibco, Cat. No. 10828028) were added in pEPSCM and hEPSCM respectively to improve cells survive. 12-24 hours later, medium was switched to pEPSCM/hEPSCM only. Both pEPSCM and hEPSCM are N2B27 based media. N2B27 basal media (500 ml) was prepared by inclusion of the following components: 482.5 ml DMEM/F-12 (Gibco, Cat. No. 21331-020), 2.5 ml N2 supplement (Thermo Fisher Scientific, Cat. No. 17502048), 5 ml B27 supplement (Thermo Fisher Scientific, Cat. No. 17504044), 5 ml 1× Glutamine Penicillin-Streptomycin (Thermo Fisher Scientific, Cat. No. 11140-050), and 5 ml 1×NEAA (Thermo Fisher Scientific, Cat. No. 10378-016), 0.1 mM 2-mercaptoethanol (Sigma, Cat. No. M6250). pEPSCM (500 ml) was generated by adding the following small molecules and cytokines into 500 ml N2B27 basal media: 0.2 μM CHIR99021(GSK3i, TOCRIS, Cat. No. 4423), 1 μM WH-4-023 (SRC inhibitor, TOCRIS, Cat. No. 5413), 2.5 μM XAV939 (Sigma, Cat. No. X3004) or 2.5 μM IWR-1 (TOCRIS, Cat. No. 3532), […] Vitamin C (Sigma, Cat. No. 49752-100G), 10 ng/ml LIF (Stem Cell Institute, University of Cambridge. SCI) and 20 ng/ml ACTIVIN (SCI). hEPSCM (500 ml) was generated by adding the following components into 500 ml N2B27 basal media: 1.0 μM CHIR99021(GSK3 inhibitor, TOCRIS, Cat. No. 4423), 0.5 μM A-419259 (SRC inhibitor, TOCRIS, Cat. No. 3914), 2.5 μM XAV939 (Sigma, Cat. No. X3004), […] Vitamin C (Sigma, Cat. No. 49752-100G), 10 ng/ml LIF (SCI). Although both targeting SRC family kinases (SFKs), WH-4-023 and A419259 were preferred for porcine and human EPSCs, respectively. […] The concentrations of CHIR99021 for porcine and human EPSC cultures are 0.2 μM and 1.0 μM, respectively. […] 0.25 μM SB 590885 (BRAF inhibitor, R&D, Cat. No. 2650) and 2.0 μM SP600125 ([…], TOCRIS, Cat. No. 1496) were included to improve porcine and human EPSC cultures, but they were not essential for the routine maintenance of porcine and human EPSCs. All cell cultures in this paper were performed under conditions of 37° C. and 5% CO2 unless stated otherwise.
(§2) Total RNA was isolated using an RNeasy Mini Kit (Qiagen, Cat. No. 74106) for cultured cells or RNeasy Micro Kit (Qiagen, Cat. No. 74034) for sorted NANOS3-mCherry^+ cells. RNA was subsequently quantified and treated with gDNA WipeOut to remove genomic DNA. Complementary DNA (cDNA) was prepared using a QuantiTect Reverse Transcription Kit (Qiagen, Cat. No. 205311). RT-qPCR primers or TaqMan Gene Expression Assays (Life Technologies) are listed in Supplementary Table 10 and 11. ABsolute Blue qPCR ROX Mix (ABgene, Cat. No. AB4138B) were used for probe based qPCR assays and SYBR Green ROX qPCR Mastermix (Qiagen, Cat. No. 330523) were used for primer based qPCR assays. All qPCR reactions were performed on ABI 7900 HT Sequence Detection System (Life Technologies). Information on all primers and probes used for qPCR analysis are provided in Supplementary Table 10 and 11. Gene expression was determined relative to GAPDH using the […]. […]

The subject of the next experiment is pEPSCs^Emb. Kind of experiment: Requirement of individual culture components for pEPSCs (RT-qPCR, AP+ colony formation). Type of experiment: cell-based, porcine. As to conditions: for number of colonies from single cells / pluripotency gene expression: removing the component from pEPSCM. Here is the method:
as §1, §2

For experiment [1], the system named is NANOS3-H2BmCherry reporter pEPSCs^Emb. Kind of experiment: Induction of pPGCLCs from NANOS3-H2BmCherry reporter pEPSCs (EBs, FACS). Type of experiment: cell-based, porcine. As to conditions: inhibition of BMP2/4 signaling in EB culture. Here is the method: To analyse the contribution of donor mCherry^+ porcine EPSCs in day 25-27 chimeras, the half fetuses were dissected into small pieces representing several body parts (head, trunk and tail). The dissected tissues and placenta were digested with 1.0 mg/ml collagenase IV (Thermo Fisher Scientific, Cat. No. 17104019) for 1-3 hours at 37° C. on a shaker. A pipette was used to blow the tissue blocks and dissociate them into single cells. The dissociated cells were filtered with a 35 μm nylon mesh (Corning, Cat. No. 352235) to remove tissues clumps. After centrifugation, the cells were fixed using Fixation Medium according to the manufacturers' manual (BD Cytofix, Cat. No. 554655) and the washed cells were stored at 4° C. in PBS supplemented with 0.1% NaN3 (Sigma, Cat. No. 199931) and 5% FBS (Gibco, Cat. No. 10270) before analysed with flow cytometry. All the samples were analysed using BD LSR Fortessa cytometer. 561 nm (610/20 bandpass filter) and 488 nm (525/50 bandpass filter) channels were used to detect mCherry and excluded autofluorescence. PGC EBs were trypsinized with 0.25% trypsin/EDTA Gibco, Cat. No. 25500-054) at 37° C. for 15 mins and stained with PerCP-Cy5.5 conjugated anti-TNAP antibody. 561 nm (610/20 bandpass filter) and 488 nm (710/50 bandpass filter) channels were used to detect NANOS3-H2BmCherry^+/TNAP^+ cells. FACS data were analysed by Flowjo software. […]

Another experiment has as its system human EPSCs. Kind of experiment: Differentiation of human EPSCs to trophoblast lineages (CDX2-H2B-Venus reporter flow cytometry, RT-qPCR). Type of experiment: cell-based. Here is the method:
hEPSCs were dissociated with 0.25% trypsin/EDTA and seeded in gelatinised 6-well plates at a density of 0.1×10^6 cells/well. The cells were cultured in 20% KSR media supplemented with 5 μM ROCK inhibitor Y-27632 for 1 day. 20% KSR media: DMEM/F-12 (Gibco, Cat. No. 21331-020), 20% KnockOut Serum Replacement (KSR) (Gibco, Cat. No. 10828-028), 1× glutamine penicillin-streptomycin (Thermo Fisher Scientific, Cat. No. 11140-050), 1×NEAA (Thermo Fisher Scientific, Cat. No. 10378-016) and 0.1 mM 2-mercaptoethanol (Sigma, Cat. No. M6250). From the second day, different combinations of the TGFβ inhibitor SB431542 (10 μM, Tocris, Cat. No. 1514), BMP4 (50 ng/ml, R&D, Cat. No. 5020-BP) and the FGF receptor inhibitor PD173074 (0.1 μM, Tocris, Cat. No. 3044) were added into 20% KSR media to start the trophoblast differentiation. The cells were collected at indicated time points for analysis.

Turning to `CN1CCN(C2CCC(n3cc(-c4ccc(Oc5ccccc5)cc4)c4c(N)ncnc43)CC2)CC1` (stereo not shown) [A419259], in the experiment with H1-EPSCs (removal of the SRC inhibitor, human EPSCs), the “expression of pluripotency factors” value is “reduced expression of pluripotency factors”.
Turning to `Cc1c[nH]c(-c2cnc(NCCNc3ccc(C#N)cn3)nc2-c2ccc(Cl)cc2Cl)n1` [CHIR99021], the “differentiation of EPSCs” value in the experiment with H1-EPSCs (high concentration 3.0 μM, human EPSCs) is “induced differentiation; also recorded: induces porcine and human EPSC differentiation”; in the experiment on pEPSCs^Emb (high concentration 3.0 μM, porcine EPSCs), “induced differentiation; also recorded: induces porcine and human EPSC differentiation”. Also, the proliferation result in the experiment with H1-EPSCs (human EPSCs) and in the experiment with pEPSCs^Emb (porcine EPSCs) was “improved proliferation” in each case. The “number of colonies from single cells” value in the experiment on pEPSCs^Emb is “reduced”. For the same molecule, the pluripotency gene expression entry in the experiment with pEPSCs^Emb was “did not affect”.
On to `c1ccc2c(-c3cnn4cc(-c5ccc(N6CCNCC6)cc5)cnc34)ccnc2c1` [LDN-193189], for which, in experiment [1], the “formation of mCherry+/TNAP+ cell clusters” value was “abrogated”.
As for `NC(=O)c1ccc(-c2nc(-c3ccc4c(c3)OCO4)c(-c3ccccn3)[nH]2)cc1` [SB431542], the cell differentiation result in the experiment with H1-EPSCs (adding the TGFβ inhibitor, human EPSCs) is “induced rapid cell differentiation”. In the experiment with human EPSCs (TGFβ inhibition, cells collected 4 days after), the “CDX2 reporter cells being CDX2-Venus+” value came out at 70%. The “cell survival and pluripotency factor expression” value in the experiment with pEPSCs^Emb (adding the TGFβ inhibitor to pEPSCM) is “massive cell loss and down-regulation of pluripotency factors”.
In the case of `O=C1O[C@H]([C@@H](O)CO)C(O)=C1O` [Vitamin C], in the experiment with pEPSCs^Emb, the “number of colonies from single cells” value was “reduced” and the pluripotency gene expression result is “did not affect”.
In the case of `COc1ccc(N(C(=O)Oc2c(C)cccc2C)c2ccnc(Nc3ccc(N4CCN(C)CC4)cc3)n2)c(OC)c1` [WH-4-023], the pluripotency gene expression entry in the experiment on H1-EPSCs (WH-4-023 used instead of A419259 in human EPSCs) was “lower pluripotency gene expression”. In addition, in the experiment with pEPSCs^Emb (removal of the SRC inhibitor, porcine EPSCs), the “expression of pluripotency factors” value was “reduced expression of pluripotency factors”.

B1: BMP4: cytokine (R&D, Cat. No. 5020-BP) promoting differentiation of human ESCs to putative trophoblasts (protein, UniProt P21275 293-408, looked up)
Bone morphogenetic protein 4: SPKHHPQRSRKKNKNCRRHSLYVDFSDVGWNDWIVAPPGYQAFYCHGDCPFPLADHLNSTNHAIVQTLVNSVNSSIPKACCVPTELSAISMLYLDEYDKVVLKNYQEMVVEGCGCR
With B1, the “expression of trophoblast genes” value with human EPSCs (4-day BMP4 treatment, H1-EPSCs and iPSC-EPSCs versus H1-ESCs or H1-5i naïve ESCs) is given as “induced expression of trophoblast genes”.
